Data taken from PubChem BioAssay AID1963983 (Molecular Pharmacology Branch, DTP, NCI, 2024).

Tested on: 186277-243-T-J2-PDC multi-cell spheroid viability
Test: Anticancer human tumor 186277-243-T-J2-PDC patient-derived colon adenocarcinoma cell line growth inhibition [PI3K]
Settings: for IC50: curve of first compound; for viability, T/C: stronger effect = lower value
Source text: Combinatorial screen of targeted agents with the PI3K inhibitors inavolisib, alpelisib, duvelisib, and copanlisib in multi-cell type tumor spheroids
A high-throughput screen of multi-cell type tumor spheroids was designed to identify active combinations of targeted small molecules and PI3K pathway inhibitors. Complex spheroids include a stromal component modeled by human endothelial cells (HUVEC) and fibroblasts modeled by human mesenchymal stem cells (MSCs). The concentration ranges selected for each drug and investigational agent were based upon clinically achievable concentrations if the clinical Cmax of the agent was known.
Compounds. The drugs and investigational agents: inavolisib (NSC800729), alpelisib (NSC765974), duvelisib (NSC772469), copanlisib (NSC816437), ipatasertib (NSC767898), afuresertib (NSC778305), talazoparib (NSC767125), sapanisertib (NSC764658), selumetinib (NSC741078), tovorafenib (DAY101, NSC766906), vemurafenib (NSC761431), ravoxertinib (NSC781343), sotorasib (NSC818433), MRTX1133 (NSC 836407), abemaciclib (NSC 768073), palbociclib (NSC758247), venetoclax (NSC 766270), SY5609 (NSC837396), enzalutamide (NSC755605), and darolutamide (NSC825331), were obtained from the National Cancer Institute (NCI) Developmental Therapeutics Program Chemical Repository. The FDA-approved anticancer drug set is available from the NCI Developmental Therapeutics Program. […] The stock solutions were prepared in dimethyl sulfoxide (DMSO, Sigma-Aldrich, St. Louis, MO, cat. D2650) at 800-fold the tested concentration and stored at -70 degrees C prior to their use. All drugs and investigational agents were tested over a range starting from a high concentration at or near the clinical Cmax and decreasing in half-log increments. If the clinical Cmax for an agent had not been determined, the highest concentration tested was 10 microM.
Cell Culture. All cells were maintained in an incubator at 37 degrees C and 5% CO2 with 95% humidity. The PDC lines were cultured according to standard operating procedures established by the NCI PDMR (https://pdmr.cancer.gov/sops/default.htm). All PDCs were thawed and cultured in Matrigel-coated flasks prepared with a working solution of 1X Ham's F-12 nutrient mix, without supplementation (Invitrogen, Waltham, MA, cat. 11765054), 100 U/mL penicillin-streptomycin (Invitrogen, cat. 15140122), and 2.5% Matrigel (Corning Inc., Corning, NY, cat. 354248) for the first three passages. The 354836-022-R-J1-PDC, 475296-252-R-J1-PDC, and 997726-040-R-J2-PDC lines were cultured in 6A media, which includes advanced DMEM/F-12 (Thermo Fisher Scientific, cat. 12634028), 10 mM HEPES (Thermo Fisher Scientific, cat. 15630080), 1X GlutaMAX supplement (Thermo Fisher Scientific, cat. 35050061), 0.1 mg/mL primocin (InvivoGen, San Diego, CA, cat. ant-pm-2), 10% defined fetal bovine serum, heat inactivated (HyClone Laboratories Inc., Logan, UT, cat. SH30070.03HI), 50% L-WRN conditioned media (ATCC, cat. CRL-3276), 1.25 mM N-Acetyl-L-cysteine (Sigma-Aldrich, cat. A9165), 10 mM nicotinamide (Sigma-Aldrich, cat. N0636), 1X B-27 supplement (Thermo Fisher Scientific, cat. 17504044), 1X N-2 supplement (Thermo Fisher Scientific, cat. 17502048), and 10 microM Y-27632 dihydrochloride (Tocris Bioscience, Bristol, United Kingdom, cat. 1254). The 624824-186-R-J2-PDC line was cultured in 6C/Colon 1B media, which includes all 6A media components plus 50 ng/mL human EGF recombinant protein (Thermo Fisher Scientific, cat. PHG0311). […]

[1] = second compound 0.00316 µM, first compound 0.0316 µM
[2] = second compound 0.00316 µM, first compound 0.1 µM
[3] = second compound 0.00316 µM, first compound 0.316 µM
[4] = second compound 0.00316 µM, first compound 1 µM
[5] = second compound 0.00316 µM, first compound 3.16 µM
[6] = second compound 0.00316 µM, first compound 10 µM
[7] = second compound 0.01 µM, first compound 0.0316 µM
[8] = second compound 0.01 µM, first compound 0.1 µM
[9] = second compound 0.01 µM, first compound 0.316 µM
[10] = second compound 0.01 µM, first compound 1 µM
[11] = second compound 0.01 µM, first compound 3.16 µM
[12] = second compound 0.01 µM, first compound 10 µM
[13] = second compound 0.0316 µM, first compound 0.0316 µM
[14] = second compound 0.0316 µM, first compound 0.1 µM
[15] = second compound 0.0316 µM, first compound 0.316 µM
[16] = second compound 0.0316 µM, first compound 1 µM
[17] = second compound 0.0316 µM, first compound 3.16 µM
[18] = second compound 0.0316 µM, first compound 10 µM
[19] = second compound 0.1 µM, first compound 0.0316 µM
[20] = second compound 0.1 µM, first compound 0.1 µM
[21] = second compound 0.1 µM, first compound 0.316 µM
[22] = second compound 0.1 µM, first compound 1 µM
[23] = second compound 0.1 µM, first compound 3.16 µM
[24] = second compound 0.1 µM, first compound 10 µM
[25] = second compound 0.316 µM, first compound 0.0316 µM
[26] = second compound 0.316 µM, first compound 0.1 µM
[27] = second compound 0.316 µM, first compound 0.316 µM
[28] = second compound 0.316 µM, first compound 1 µM
[29] = second compound 0.316 µM, first compound 3.16 µM
[30] = second compound 0.316 µM, first compound 10 µM
[31] = second compound 1 µM, first compound 0.0316 µM
[32] = second compound 1 µM, first compound 0.1 µM
[33] = second compound 1 µM, first compound 0.316 µM
[34] = second compound 1 µM, first compound 1 µM
[35] = second compound 1 µM, first compound 3.16 µM
[36] = second compound 1 µM, first compound 10 µM
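Note: spheroids exposed to compounds for seven days before viability reading.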
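Throughout, for viability, T/C: 100% = DMSO vehicle control viability.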

In the case of `CC(Cn1ccc(-c2ccc(C#N)c(Cl)c2)n1)NC(=O)c1cc(C(C)O)[nH]n1` (centres undefined) + CC(Nc1ccc2c(c1)OCCn1cc(N3C(=O)OCC3C(F)F)nc1-2)C(N)=O, the IC50 (second compound 0.00316 µM) is reported as over 10000 nM, the IC50 (second compound 0.01 µM) is reported as over 10000 nM and the IC50 (second compound 0.0316 µM) is reported as over 10000 nM. It also gave an IC50 (second compound 0.1 µM) of over 10000 nM, an IC50 (second compound 0.316 µM) of over 10000 nM and an IC50 (second compound 1 µM) of under 31.6 nM. The viability, T/C [1] was 97.8%, the viability, T/C [2] was 97% and the viability, T/C [3] was 91.3%. The viability, T/C [4] was 84.9%, the viability, T/C [5] was 93.6% and the viability, T/C [6] was 102%. For the same compound, the viability, T/C [7] was 101%, the viability, T/C [8] was 93.2% and the viability, T/C [9] was 95.6%. It also gave a viability, T/C [10] of 91.6%, a viability, T/C [11] of 108% and a viability, T/C [12] of 91.7%. The viability, T/C [13] was 106%, the viability, T/C [14] was 95.3% and the viability, T/C [15] was 102%. It also gave a viability, T/C [16] of 111%, a viability, T/C [17] of 111% and a viability, T/C [18] of 95.5%. The viability, T/C [19] was 104%, the viability, T/C [20] was 107% and the viability, T/C [21] was 101%. It also gave a viability, T/C [22] of 90.1%, a viability, T/C [23] of 88.8% and a viability, T/C [24] of 74.4%. For the same compound, the viability, T/C [25] was 81.3%, the viability, T/C [26] was 82% and the viability, T/C [27] was 74.6%. It also gave a viability, T/C [28] of 73%, a viability, T/C [29] of 67.7% and a viability, T/C [30] of 57.7%. It also gave a viability, T/C [31] of 47.7%, a viability, T/C [32] of 45.9% and a viability, T/C [33] of 44.9%. For the same compound, the viability, T/C [34] was 45.6%, the viability, T/C [35] was 44% and the viability, T/C [36] was 35.4%.

Compound `Cn1nccc1Nc1nccc(-c2ccn(C(CO)c3ccc(Cl)c(F)c3)c(=O)c2)n1` (centres undefined) + CC(Nc1ccc2c(c1)OCCn1cc(N3C(=O)OCC3C(F)F)nc1-2)C(N)=O has an IC50 (second compound 0.00316 µM) of 1870 nM, an IC50 (second compound 0.01 µM) of 1770 nM and an IC50 (second compound 0.0316 µM) of 1470 nM. For the same compound, the IC50 (second compound 0.1 µM) was 377 nM, the IC50 (second compound 0.316 µM) was 74.7 nM and the IC50 (second compound 1 µM) was under 31.6 nM. For the same compound, the viability, T/C [1] was 105%, the viability, T/C [2] was 114% and the viability, T/C [3] was 113%. It also gave a viability, T/C [4] of 69.3%, a viability, T/C [5] of 37.2% and a viability, T/C [6] of 22.8%. It also gave a viability, T/C [7] of 111%, a viability, T/C [8] of 121% and a viability, T/C [9] of 109%. It also gave a viability, T/C [10] of 67.3%, a viability, T/C [11] of 33.5% and a viability, T/C [12] of 22%. The viability, T/C [13] was 103%, the viability, T/C [14] was 110% and the viability, T/C [15] was 98.4%. For the same compound, the viability, T/C [16] was 61.1%, the viability, T/C [17] was 28.1% and the viability, T/C [18] was 20.9%. For the same compound, the viability, T/C [19] was 124%, the viability, T/C [20] was 86.5% and the viability, T/C [21] was 54.2%. It also gave a viability, T/C [22] of 28.9%, a viability, T/C [23] of 16.4% and a viability, T/C [24] of 7.14%. It also gave a viability, T/C [25] of 70.4%, a viability, T/C [26] of 44.5% and a viability, T/C [27] of 20.3%. The viability, T/C [28] was 15.9%, the viability, T/C [29] was 9.67% and the viability, T/C [30] was 4.2%. The viability, T/C [31] was 38.1%, the viability, T/C [32] was 29.4% and the viability, T/C [33] was 14.2%. It also gave a viability, T/C [34] of 9.05%, a viability, T/C [35] of 10.6% and a viability, T/C [36] of 3.67%.
